The source of these data is ChEMBL document CHEMBL6127042, “Design, synthesis and antimycobacterial activity of novel benzothiazinones with improved water solubility” (Eur J Med Chem, 2024).

In data set [1] the test system is Mycobacterium tuberculosis. Nature of the data set: Antitubercular activity against multidrug resistant Mycobacterium tuberculosis 16995 assessed as bacterial growth inhibition incubated for 7 days in 7H9 medium by alamar blue staining based microplate fluorometric analysis. It counts as functional. The note with it: Mycobacterium tuberculosis, 16995, 168 h; time 7 day.

The test system of data set [2] is Mycobacterium tuberculosis. Kind of data set: Antitubercular activity against multidrug resistant Mycobacterium tuberculosis 16833 assessed as bacterial growth inhibition incubated for 7 days in 7H9 medium by alamar blue staining based microplate fluorometric analysis. It counts as functional. The note with it: Mycobacterium tuberculosis, 16833, 168 h; time 7 day. On the technique in general: Resazurin is reduced to fluorescent resorufin, in cell work by metabolically active cells.

A short description of data set [3]: Selectivity index, ratio of CC50 for cytotoxicity against African green monkey Vero cells to MIC for antimycobacterial activity against multidrug resistant Mycobacterium tuberculosis 16833. It counts as toxicity, cell-based. The note with it: read-out: Selectivity Index.

Structures are written as SMILES. Values after ≈ are worked out from the molar mass of the structure shown.

Turning to `O=C(O)CNC(=O)CCON=C1CCC(CN2CCN(c3nc(=O)c4cc(C(F)(F)F)cc([N+](=O)[O-])c4s3)CC2)CC1` (stereo not drawn), the MIC in data set [1] amounted to 0.425 µM (≈ 0.261 µg/mL); in data set [2] it was 0.21 µM (≈ 0.129 µg/mL). Also, in data set [3], the selectivity ratio is above 496.
As for `CC(C)(C)OC(=O)NCCON=C1CCC(CN2CCN(c3nc(=O)c4cc(C(F)(F)F)cc([N+](=O)[O-])c4s3)CC2)CC1` (stereo not drawn), the minimum inhibitory concentration (MIC) in data set [1] was 0.041 µM (≈ 0.0258 µg/mL); in data set [2], below 0.025 µM. For the same compound, in data set [3], the selectivity ratio is above 4080.
The corresponding values for `CC(C)(C)OC(=O)CNC(=O)CCON=C1CCC(CN2CCN(c3nc(=O)c4cc(C(F)(F)F)cc([N+](=O)[O-])c4s3)CC2)CC1` (stereo not drawn) are 0.093 µM (≈ 0.0624 µg/mL), 0.048 µM (≈ 0.0322 µg/mL) and above 1990.
The corresponding values for `O=C(O)CCON=C1CCC(CN2CCN(c3nc(=O)c4cc(C(F)(F)F)cc([N+](=O)[O-])c4s3)CC2)CC1` (stereo not drawn) are 0.221 µM (≈ 0.123 µg/mL), 0.212 µM (≈ 0.118 µg/mL) and above 542.
In the case of `O=C(O)CON=C1CCC(CN2CCN(c3nc(=O)c4cc(C(F)(F)F)cc([N+](=O)[O-])c4s3)CC2)CC1` (stereo not drawn), the minimal inhibitory concentration (MIC) in data set [1] and in data set [2] was 0.057 µM (≈ 0.031 µg/mL) throughout. In addition, the selectivity ratio in data set [3] is above 2070.
On to `CC(C)(C)OC(=O)CNC(=O)C(C)(C)ON=C1CCC(CN2CCN(c3nc(=O)c4cc(C(F)(F)F)cc([N+](=O)[O-])c4s3)CC2)CC1` (stereo not drawn), for which the figures for the minimum inhibitory concentration (MIC) in data set [1] and in data set [2] were 0.066 µM (≈ 0.0452 µg/mL) and 0.067 µM (≈ 0.0459 µg/mL), respectively. Also, in data set [3], the selectivity ratio was above 1400.
Take `C[C@H](NC(=O)CON=C1CCC(CN2CCN(c3nc(=O)c4cc(C(F)(F)F)cc([N+](=O)[O-])c4s3)CC2)CC1)C(=O)OC(C)(C)C` (stereo partly drawn): the MIC in data set [1] was found to be 0.167 µM (≈ 0.112 µg/mL); in data set [2], 0.14 µM (≈ 0.0939 µg/mL). Further, in data set [3], the selectivity ratio is above 682.
As for `CC(C)(C)OC(=O)CNC(=O)CON=C1CCC(CN2CCN(c3nc(=O)c4cc(C(F)(F)F)cc([N+](=O)[O-])c4s3)CC2)CC1` (stereo not drawn), the results for the minimal inhibitory concentration (MIC) in data set [1] and in data set [2] were 0.03 µM (≈ 0.0197 µg/mL) and 0.239 µM (≈ 0.157 µg/mL), respectively. The selectivity ratio in data set [3] was above 408.
For `O=C(O)CNC1CCC(CN2CCN(c3nc(=O)c4cc(C(F)(F)F)cc([N+](=O)[O-])c4s3)CC2)CC1` (stereo not drawn), in that order: 0.095 µM (≈ 0.0503 µg/mL), 0.087 µM (≈ 0.0461 µg/mL) and above 1390.
For `C[C@H](NC(=O)C(C)(C)ON=C1CCC(CN2CCN(c3nc(=O)c4cc(C(F)(F)F)cc([N+](=O)[O-])c4s3)CC2)CC1)C(=O)OC(C)(C)C` (stereo partly drawn), in that order: 0.03 µM (≈ 0.021 µg/mL), below 0.023 µM and above 3980.
The corresponding values for `CC(C)(ON=C1CCC(CN2CCN(c3nc(=O)c4cc(C(F)(F)F)cc([N+](=O)[O-])c4s3)CC2)CC1)C(=O)O` (stereo not drawn) are 0.109 µM (≈ 0.0623 µg/mL), 0.375 µM (≈ 0.214 µg/mL) and above 299.
For `CC(C)(C)OC(=O)CCON=C1CCC(CN2CCN(c3nc(=O)c4cc(C(F)(F)F)cc([N+](=O)[O-])c4s3)CC2)CC1` (stereo not drawn), the minimal inhibitory concentration (MIC) in data set [1] turned out to be 0.068 µM (≈ 0.0417 µg/mL); in data set [2], 0.031 µM (≈ 0.019 µg/mL). Also, the selectivity ratio in data set [3] was above 3370.
Regarding `NNC(=O)c1ccncc1` [ISONIAZID], the MIC in data set [1] and in data set [2] was above 72.9 µM each time.
For `O=c1nc(N2CCN(CC3CCCCC3)CC2)sc2c([N+](=O)[O-])cc(C(F)(F)F)cc12` [MACOZINONE], the minimal inhibitory concentration (MIC) in data set [1] and in data set [2] was below 0.035 µM in each case. Also, in data set [3], the selectivity ratio was above 4010.
As for `CO[C@H]1/C=C/O[C@@]2(C)Oc3c(C)c(O)c4c(O)c(c(/C=N/N5CCN(C)CC5)c(O)c4c3C2=O)NC(=O)/C(C)=C\C=C\[C@H](C)[C@H](O)[C@@H](C)[C@@H](O)[C@@H](C)[C@H](OC(C)=O)[C@@H]1C` [RIFAMPIN], the MIC in data set [1] and in data set [2] was above 12.2 µM each time.

For orientation: MIC means the least concentration at which growth counts as inhibited.
